Measured values taken from patent US4520026A, “Indolizine derivatives and use as cardiovascular agents” (S. A. Labaz N.V., priority 1982, dated 1985).

Experiments:
[1] = test system: epinephrine-accelerated heart rate (anti-β effect); assay: Antiadrenergic effect: anti-β effect (reduction of epinephrine-accelerated heart rate); assay type: in vivo; conditions: dog; for inhibition in vivo at 7.5 mg/kg: dose 7.5 mg/kg i.v.
Description: (§1) The purpose of this test was to determine the capacity of the compounds under study to reduce epinephrine-increased blood-pressure (anti-α effect) and epinephrine-accelerated heart rate (anti-β effect) in the dog previously anaesthetized with pentobarbital and atropinized.
(§2) For each dog, the dose of epinephrine was first determined which provoked a reproductible increase by about 100 mm. Hg in the arterial pressure (between 5 and 10 μg/kg). After that, the dose of epinephrine so determined was administered followed by a dose by intravenous route of the compound to be studied. The percentage of reduction of the hypertension provoked by the compound under study in comparison with the hypertension previously obtained (about 100 mm. Hg) was then registered.
(§3) The percentage of reduction of the epinephrine-induced acceleration of heart-rate produced by the compound under study in comparison with the tachycardia previously measured (about 70 beats) was then registered. In both cases, the results were expressed as follows: […]
(§4) + for a <50%-reduction of the increase in pressure or cardiac frequency
(§5) ++ for a ≥50%-reduction of the increase in pressure or cardiac frequency
(§6) +++ for a subtotal reduction of the increase in pressure or cardiac frequency

[2] = test system: epinephrine-increased blood-pressure (anti-α effect); assay: Antiadrenergic effect: anti-α effect (reduction of epinephrine-increased blood-pressure); assay type: in vivo; conditions: dog; for inhibition in vivo at 7.5 mg/kg: dose 7.5 mg/kg i.v.
Description: as §1, §2, §3, §4, §5, §6

[3] = Canis lupus familiaris, iv, dose 10 mg/kg i.v.
[4] = Canis lupus familiaris, iv, dose 7.8 mg/kg i.v.
[5] = Canis lupus familiaris, iv, dose 5 mg/kg i.v.
[6] = Canis lupus familiaris, iv, dose 7 mg/kg i.v.

CCCc1c(Br)c2ccccn2c1C(=O)c1cc(Br)c(OCCCN(CCC)CCC)c(Br)c1 [Br/Br/Br/n-C3H7/n-C3H7/3, 1-Bromo-2-n-propyl-3-[4-(3-di-n-propylaminopropyl)-oxy-3,5-dibromo-benzoyl]-indolizine] was tested, and the Anti-β effect ([1]; dose 10 mg/kg i.v.) was “+++” and the Anti-α effect ([2]; dose 10 mg/kg i.v.) was “+++”.
CCCCN(CCCC)CCCOc1ccc(C(=O)c2c(-c3ccc(F)cc3)c(Br)c3ccccn23)cc1Br [Br/Br/H/drawing 23/n-C4H9/3] was tested, and the inhibition in vivo at 10 mg/kg [1, 3] was greater than 50% and the Anti-α effect ([2]; dose 10 mg/kg i.v.) was “+++”.
Work on CCCN(CCC)CCCOc1c(Cl)cc(C(=O)c2c(-c3ccccc3)c(Br)c3ccccn23)cc1Cl [Br/Cl/Cl/drawing 39/n-C3H7/3, 1-Bromo-2-phenyl-3-[4-(3-di-n-propylaminopropyl)-oxy-3,5-dichloro-benzoyl]-indolizine] yielded an inhibition in vivo at 10 mg/kg [1, 3] greater than 50% and an inhibition in vivo at 10 mg/kg [2, 3] greater than 50%.
In the case of CCCCN(CCCC)CCCOc1c(Cl)cc(C(=O)c2c(-c3ccccc3)c(Br)c3ccccn23)cc1Cl [Br/Cl/Cl/drawing 40/n-C4H9/3, 1-Bromo-2-phenyl-3-[4-(3-di-n-butylaminopropyl)-oxy-3,5-dichloro-benzoyl]-indolizine], the inhibition in vivo at 10 mg/kg [1, 3] is reported as greater than 50% and the inhibition in vivo at 10 mg/kg [2, 3] is reported as greater than 50%.
CCCN(CCC)CCCOc1ccc(C(=O)c2c(CC)c(Br)c3ccccn23)cc1Cl [Br/Cl/H/C2H5/n-C3H7/3, 1-Bromo-2-ethyl-3-[4-(3-di-n-propylaminopropyl)-oxy-3-chloro-benzoyl]-indolizine] showed an inhibition in vivo at 7.8 mg/kg [1, 4] greater than 50% and an inhibition in vivo at 7.8 mg/kg [2, 4] greater than 50%.
CCCCN(CCCC)CCCOc1ccc(C(=O)c2c(CC)c(Br)c3ccccn23)cc1Cl [Br/Cl/H/C2H5/n-C4H9/3, 1-Bromo-2-ethyl-3-[4-(3-di-n-butylaminopropyl)-oxy-3-chloro-benzoyl]-indolizine] was tested, and the Anti-β effect ([1]; dose 10 mg/kg i.v.) was “+++” and the Anti-α effect ([2]; dose 10 mg/kg i.v.) was “+++”.
With CCCCN(CCCC)CCCOc1ccc(C(=O)c2c(-c3ccccc3)c(Br)c3ccccn23)cc1Cl [Br/Cl/H/drawing 26/n-C4H9/3] the Anti-β effect ([1]; dose 10 mg/kg i.v.) was “+++” and the inhibition in vivo at 10 mg/kg [2, 3] was greater than 50%.
Compound CCCN(CCC)CCCOc1ccc(C(=O)c2c(-c3ccc(Br)cc3)c(Br)c3ccccn23)cc1Cl [Br/Cl/H/drawing 27/n-C3H7/3] has an inhibition in vivo at 10 mg/kg [1, 3] greater than 50% and an inhibition in vivo at 10 mg/kg [2, 3] greater than 50%.
CCCCN(CCCC)CCCOc1ccc(C(=O)c2c(-c3ccc(Cl)cc3)c(Br)c3ccccn23)cc1Cl [Br/Cl/H/drawing 28/n-C4H9/3] was tested, and the inhibition in vivo at 10 mg/kg [1, 3] was greater than 50% and the inhibition in vivo at 10 mg/kg [2, 3] was greater than 50%.
In the case of CCCN(CCC)CCCOc1ccc(C(=O)c2c(-c3ccc(Cl)cc3)c(Br)c3ccccn23)cc1Cl [Br/Cl/H/drawing 30/n-C3H7/3], the inhibition in vivo at 10 mg/kg [1, 3] is reported as greater than 50% and the Anti-α effect ([2]; dose 10 mg/kg i.v.) is reported as “+++”.
For CCCN(CCC)CCCOc1ccc(C(=O)c2c(-c3cccc(Br)c3)c(Br)c3ccccn23)cc1Cl [Br/Cl/H/drawing 32/n-C3H7/3], the Anti-β effect ([1]; dose 10 mg/kg i.v.) was “+++” and the Anti-α effect ([2]; dose 10 mg/kg i.v.) was “+++”.
CCCCN(CCCC)CCCOc1ccc(C(=O)c2c(CC)c(Br)c3ccccn23)cc1 [Br/H/H/C2H5/n-C4H9/3, 1-Bromo-2-ethyl-3-[4-(3-di-n-butylaminopropyl)-oxy-benzoyl]-indolizine] was tested, and the Anti-β effect ([1]; dose 6 mg/kg i.v.) was “+++” and the Anti-α effect ([2]; dose 6 mg/kg i.v.) was “+++”.
For CCCCN(CCCC)CCCOc1ccc(C(=O)c2c(CC)c(Br)c3ccccn23)cc1OC [Br/OCH3/H/C2H5/n-C4H9/3, 1-Bromo-2-ethyl-3-[4-(3-di-n-butylaminopropyl)-oxy-3-methoxy-benzoyl]-indolizine], the inhibition in vivo at 5 mg/kg [1, 5] was greater than 50% and the inhibition in vivo at 5 mg/kg [2, 5] was greater than 50%.
CCCN(CCC)CCCOc1ccc(C(=O)c2c(C)c(Br)c3ccccn23)cc1OC [Br/OCH3/H/CH3/n-C3H7/3, 1-Bromo-2-methyl-3-[4-(3-di-n-propylaminopropyl)-oxy-3-methoxy-benzoyl]-indolizine] was tested, and the inhibition in vivo at 7.5 mg/kg ([1]; Canis lupus familiaris, iv) was greater than 50% and the inhibition in vivo at 7.5 mg/kg ([2]; Canis lupus familiaris, iv) was greater than 50%.
CCCCN(CCCC)CCCOc1ccc(C(=O)c2c(C)c(Br)c3ccccn23)cc1OC [Br/OCH3/H/CH3/n-C4H9/3, 1-Bromo-2-methyl-3-[4-(3-di-n-butylaminopropyl)-oxy-3-methoxy-benzoyl]-indolizine] showed an inhibition in vivo at 7 mg/kg [1, 6] greater than 50% and an inhibition in vivo at 7 mg/kg [2, 6] greater than 50%.
For CCCCN(CCCC)CCCOc1ccc(C(=O)c2c(CC)c(C)c3ccccn23)cc1Br [CH3/Br/H/C2H5/n-C4H9/3, 1-Methyl-2-ethyl-3-[4-(3-di-n-butylaminopropyl)-oxy-3-bromo-benzoyl]-indolizine], the inhibition in vivo at 2 mg/kg ([1]; Canis lupus familiaris, iv, dose 2 mg/kg i.v.) was greater than 50% and the Anti-α effect ([2]; dose 2 mg/kg i.v.) was “+++”.
CCCCN(CCCC)CCCOc1ccc(C(=O)c2c(C)c(C)c3ccccn23)cc1Br [CH3/Br/H/CH3/n-C4H9/3, 1,2-Dimethyl-3-[4-(3-di-n-butylaminopropyl)-oxy-3-bromo-benzoyl]-indolizine] gave an inhibition in vivo at 10 mg/kg [1, 3] greater than 50% and an inhibition in vivo at 10 mg/kg [2, 3] greater than 50%.
For CCCCN(CCCC)CCCOc1ccc(C(=O)c2c(-c3ccccc3)c(C)c3ccccn23)cc1Br [CH3/Br/H/drawing 45/n-C4H9/3, 1-Methyl-2-phenyl-3-[4-(3-di-n-butylaminopropyl)-oxy-3-bromo-benzoyl]-indolizine], the inhibition in vivo at 6.2 mg/kg ([1]; Canis lupus familiaris, iv, dose 6.2 mg/kg i.v.) was greater than 50% and the Anti-α effect ([2]; dose 6.2 mg/kg i.v.) was “+++”.
In the case of CCCN(CCC)CCCOc1ccc(C(=O)c2c(-c3ccccc3)c(C)c3ccccn23)cc1Br [CH3/Br/H/drawing 46/n-C3H7/3, 1-Methyl-2-phenyl-3-[4-(3-di-n-propylaminopropyl)-oxy-3-bromo-benzoyl]-indolizine], the inhibition in vivo at 5 mg/kg [1, 5] is reported as greater than 50% and the inhibition in vivo at 5 mg/kg [2, 5] is reported as greater than 50%.
CCCCN(CCCC)CCCOc1ccc(C(=O)c2c(CCC)c(C)c3ccccn23)cc1Br [CH3/Br/H/n-C3H7/n-C4H9/3, 1-Methyl-2-n-propyl-3-[4-(3-di-n-butylaminopropyl)-oxy-3-bromo-benzoyl]-indolizine] was tested, and the Anti-β effect ([1]; dose 10 mg/kg i.v.) was “+++” and the Anti-α effect ([2]; dose 10 mg/kg i.v.) was “+++”.
CCCCc1c(C)c2ccccn2c1C(=O)c1ccc(OCCCN(CCCC)CCCC)c(Br)c1 [CH3/Br/H/n-C4H9/n-C4H9/3, 1-Methyl-2-n-butyl-3-[4-(3-di-n-butylaminopropyl)-oxy-3-bromo-benzoyl]-indolizine] gave an inhibition in vivo at 7.5 mg/kg ([1]; Canis lupus familiaris, iv) greater than 50% and an inhibition in vivo at 7.5 mg/kg ([2]; Canis lupus familiaris, iv) greater than 50%.
For CCCCN(CCCC)CCCOc1ccc(C(=O)c2c(-c3ccccc3)c(C)c3ccccn23)cc1 [CH3/H/H/drawing 47/n-C4H9/3, 1-Methyl-2-phenyl-3-[4-(3-di-n-butylaminopropyl)-oxy-benzoyl]-indolizine], the Anti-β effect ([1]; dose 6.3 mg/kg i.v.) was “+++” and the Anti-α effect ([2]; dose 6.3 mg/kg i.v.) was “+++”.
For CCCN(CCC)CCCOc1ccc(C(=O)c2c(-c3ccccc3)c(C)c3ccccn23)cc1 [CH3/H/H/drawing 48/n-C3H7/3, 1-Methyl-2-phenyl-3-[4-(3-di-n-propylaminopropyl)-oxy-benzoyl]-indolizine], the Anti-β effect ([1]; dose 5 mg/kg i.v.) was “+++” and the Anti-α effect ([2]; dose 5 mg/kg i.v.) was “+++”.
CCCN(CCC)CCCOc1c(Br)cc(C(=O)c2c(-c3ccccc3)c(Cl)c3ccccn23)cc1Br [Cl/Br/Br/drawing 38/n-C3H7/3, 1-Chloro-2-phenyl-3-[4-(3-di-n-propylaminopropyl)-oxy-3,5-dibromo-benzoyl]-indolizine] showed an inhibition in vivo at 10 mg/kg [1, 3] of less than 50% and an inhibition in vivo at 10 mg/kg [2, 3] of less than 50%.
With CCCCN(CCCC)CCCOc1ccc(C(=O)c2c(CC)c(Cl)c3ccccn23)cc1Br [Cl/Br/H/C2H5/n-C4H9/3, 1-Chloro-2-ethyl-3-[4-(3-di-n-butylaminopropyl)-oxy-3-bromo-benzoyl]-indolizine] the Anti-β effect ([1]; dose 10 mg/kg i.v.) was “+++” and the Anti-α effect ([2]; dose 10 mg/kg i.v.) was “+++”.
In the case of CCCN(CCC)CCCOc1c(Cl)cc(C(=O)c2c(CC)c(Cl)c3ccccn23)cc1Cl [Cl/Cl/Cl/C2H5/n-C3H7/3, 1-Chloro-2-ethyl-3-[4-(3-di-n-propylaminopropyl)-oxy-3,5-dichloro-benzoyl]-indolizine], the inhibition in vivo at 10 mg/kg [1, 3] is reported as greater than 50% and the inhibition in vivo at 10 mg/kg [2, 3] is reported as greater than 50%.
In the case of CCCCN(CCCC)CCCOc1c(Cl)cc(C(=O)c2c(-c3ccccc3)c(Cl)c3ccccn23)cc1Cl [Cl/Cl/Cl/drawing 37/n-C4H9/3, 1-Chloro-2-phenyl-3-[4-(3-di-n-butylaminopropyl)-oxy-3,5-dichloro-benzoyl]-indolizine], the inhibition in vivo at 10 mg/kg [1, 3] is reported as greater than 50% and the Anti-α effect ([2]; dose 10 mg/kg i.v.) is reported as “+++”.
CCCN(CCC)CCCOc1ccc(C(=O)c2c(-c3cccc(Br)c3)c(Cl)c3ccccn23)cc1Cl [Cl/Cl/H/drawing 33/n-C3H7/3, 1-Chloro-2-(3-bromo-phenyl)-3-[4-(3-di-n-propylaminopropyl)-oxy-3-chloro-benzoyl]-indolizine] was tested, and the inhibition in vivo at 8 mg/kg ([1]; Canis lupus familiaris, iv, dose 8 mg/kg i.v.) was greater than 50% and the Anti-α effect ([2]; dose 8 mg/kg i.v.) was “+++”.
For CCCCN(CCCC)CCCOc1ccc(C(=O)c2c(-c3ccc(Cl)cc3)c(Cl)c3ccccn23)cc1 [Cl/H/H/drawing 34/n-C4H9/3], the inhibition in vivo at 10 mg/kg [1, 3] was greater than 50% and the Anti-α effect ([2]; dose 10 mg/kg i.v.) was “+++”.
In the case of CCCN(CCC)CCCOc1ccc(C(=O)c2c(-c3ccc(Cl)cc3)c(Cl)c3ccccn23)cc1 [Cl/H/H/drawing 35/n-C3H7/3], the inhibition in vivo at 5 mg/kg [1, 5] is reported as less than 50% and the inhibition in vivo at 5 mg/kg [2, 5] is reported as greater than 50%.
With CCCCN(CCCC)CCCOc1ccc(C(=O)c2c(-c3ccccc3)c(Cl)c3ccccn23)cc1 [Cl/H/H/drawing 36/n-C4H9/3] the Anti-β effect ([1]; dose 5 mg/kg i.v.) was “+++” and the Anti-α effect ([2]; dose 5 mg/kg i.v.) was “+++”.
